The values that follow are results of earlier work, collected in patent US20180153800A1, “PERSONAL LUBRICANT PROVIDING SEQUENTIAL MULTISENSORIAL PERCEPTIONS AND ARTICLES INCORPORATING SUCH LUBRICANT” (Church & Dwight Co., Inc., priority 2016, published 2018).

The series relates to human tissue.

On to `CC1CCC(C(C)C)C(OC(=O)CCC(=O)N(C)C)C1` (stereo not drawn) [2-isopropyl-5-methylcyclohexyl 4-(dimethylamino)-4-oxobutanoate], for which, where the note is “after tissue contact”, the “time of onset of cooling sensation” value is given as “about 25 seconds”. In addition, the sensation duration result (cooling sensation) is “about 11.25 minutes”. Consider `CC1CCC(C(C)C)C(C(=O)Nc2ccc(CC#N)cc2)C1` (stereo not drawn) [N-(4-cyanomethylphenyl) p-menthanecarboxamide], for which the “cooling sensation relative to menthol” value (reference menthol) is recorded as 10 times.
